Results reported in paper PMC10387993, “New pyrimidine-N-β-D-glucosides: synthesis, biological evaluation, and molecular docking investigations” (Turkish Journal of Chemistry, 2023).
Converted amounts (≈) assume the structure as drawn. Where two headings read alike, the source gives them in different places.

Columns and labels:
Assay type in all cases: cell-based
in vitro = conditions: human, LC50
Procedure: (§1) The cell lines were cultured in a cell medium (Dulbecco’s modified eagle’s or RPMI 1640) enriched with 10% (v/v) fetal bovine serum and 2% (v/v) Penicillin-Streptomycin (10,000 U/mL). First, old medium was removed out of the flask when the cells reached approximately 80% confluence. Next, cells were taken from the flasks surface using trypsin-EDTA solution and then subjected to centrifugation. Following, the cell pellet was suspended with fresh media and was inoculated into wells.
(§2) A cell suspension containing approximately 1 × 10^4 cells in 100 μL was seeded into the wells of 96-well culture plates. […]. The final volume of the wells was set to 200 μL by medium. Cell proliferation assay was evaluated by MTT (yellow tetrazolium MTT (3-(4,5-dimethylthiazolyl-2)-2,5-diphenyltetrazolium bromide) methods. Briefly, an MTT stock solution (5 mg of MTT/mL of distilled water) was filtered and kept at −20 °C until use. The cells were exposed to an MTT reagent (consisting of one parts of MTT stock solutions and nine parts of fresh RPMI 1640 without phenol red) for 4 h to form MTT formazan dye followed by the dye dissolved in DMSO with Sorenson’s buffer for 30 min at room temperature and then the plate was measured at 560 nm, with 690 nm as a reference interval, using a microplate reader. Each experiment was repeated at least three times for each cell line.
(§3) IC50 value is a concentration that inhibits half of the cells in vitro. The half maximal inhibitory concentration (IC50) of the test and control compounds was calculated using XLfit5 or excel spreadsheet and represent in μM at 95% confidence intervals. The proliferation assay results were expressed as the percent inhibition according to the following formula: % Inhibition = [1 - (Absorbance of Treatments /Absorbance of DMSO) × 100]. Three dose response parameters (GI50, TGI, LC50) were calculated according to the following formulas using the absorbance measurements of time zero (Tz), control growth (C), and test growth in the presence of drug (Ti). Growth inhibition of 50% (GI50) was calculated from [(Ti-Tz)/(C-Tz)] × 100 = 50, which is the drug concentration resulting in a 50% reduction in the net growth increase in control cells during the drug incubation. The drug concentration resulting in total growth inhibition (TGI) was calculated from Ti = Tz. The LC50 indicating a net loss of cells following treatment was calculated from [(Ti-Tz)/Tz] × 100 = −50.

normal FL cells = assay: cells; conditions: FL normal cells, MTT; for IC50: read-out: IC50; for IC (total growth inhibition): read-out: TGI
Procedure: as §1, §2, §3

[1] = LDH cytotoxic activity assay, HT29; conditions: human, HT29 cells; for cytotoxicity at 24 h, 25 μg/mL: HT29, 25 μg/mL; for cytotoxicity at 24 h, 50 μg/mL: HT29, 50 μg/mL; for cytotoxicity at 24 h, 75 μg/mL: HT29, 75 μg/mL; for cytotoxicity at 24 h, 100 μg/mL: HT29, 100 μg/mL
Procedure: as §1
(§4) Approximately 5 × 10^3 cells in 100 μL were placed into 96-well plates as triplicates and treated with 25, 50, 75, and 100 μg/mL concentrations of test compounds at 37 °C with 5% CO2 for 24 h. LDH activity was obtained by determining absorbance at 492–630 nm using a microplate reader.

[2] = LDH cytotoxic activity assay, C6; conditions: rat, C6 glioma cells; for cytotoxicity at 24 h, 25 μg/mL: C6, 25 μg/mL; for cytotoxicity at 24 h, 50 μg/mL: C6, 50 μg/mL; for cytotoxicity at 24 h, 75 μg/mL: C6, 75 μg/mL; for cytotoxicity at 24 h, 100 μg/mL: C6, 100 μg/mL
Procedure: as §1, §4

[3] = LDH cytotoxic activity assay, HeLa; conditions: human, HeLa cells
Procedure: as §1, §4

MCF7 = assay: cells; conditions: Homo sapiens; for LC50 (concentration causing 50% net cell loss relative to time zero): MCF7, read-out: LC50; for GI50 / IC50 / IC (total growth inhibition): MCF7, MTT; for IC50: read-out: IC50; for IC (total growth inhibition): read-out: TGI
Procedure: as §1, §2, §3

S. mutans ATCC 35668 = assay: Microdilution MIC assay; conditions: S. mutans ATCC 35668, 24 h at 35 °C
Procedure: (§5) MIC values of the compounds against bacterial strains were determined on the basis of a microwell dilution method. […] […]. Growth of microorganisms was determined visually after incubation for 24 h at 35 °C. The lowest concentration at which there was no visible growth (turbidity) was taken as the MIC.

S. gordonii NCTC 7870 = assay: Microdilution MIC assay; conditions: Streptococcus gordonii, NCTC7870; S. gordonii NCTC 7870, 24 h at 35 °C
Procedure: as §5

[4] = tested on: E. faecalis VRE ATCC 19433; assay: Microdilution MIC assay; conditions: Enterococcus faecalis; E. faecalis VRE ATCC 19433, 24 h at 35 °C
Procedure: as §5

S. aureus ATCC 25923 = assay: Microdilution MIC assay; conditions: Staphylococcus aureus, ATCC25923, 24 h, S. aureus ATCC 25923, 24 h at 35 °C; read-out: MIC
Procedure: as §5

[5] = tested on: P. aeruginosa AGME ATCC 27853; assay: Microdilution MIC assay; conditions: Pseudomonas aeruginosa, ATCC27853; P. aeruginosa AGME ATCC 27853, 24 h at 35 °C
Procedure: as §5

[6] = tested on: S. aureus MSSA ATCC 29213; assay: Microdilution MIC assay; conditions: S. aureus MSSA ATCC 29213, 24 h at 35 °C
Procedure: as §5

[7] = tested on: A. actinomycetemcomitans ATCC 33384; assay: Microdilution MIC assay; conditions: Aggregatibacter actinomycetemcomitans, ATCC33384; A. actinomycetemcomitans ATCC 33384, 24 h at 35 °C
Procedure: as §5

[8] = tested on: S. aureus MRSA ATCC 46300; assay: Microdilution MIC assay; conditions: Staphylococcus aureus; S. aureus MRSA ATCC 46300, 24 h at 35 °C; read-out: MIC
Procedure: as §5

E. coli ESBL ATCC 35218 = assay: Microdilution MIC assay; conditions: Escherichia coli, ATCC35218; E. coli ESBL ATCC 35218, 24 h at 35 °C
Procedure: as §5

E. coli ATCC 25922 = assay: Microdilution MIC assay; conditions: Escherichia coli, ATCC25922; E. coli ATCC 25922, 24 h at 35 °C
Procedure: as §5

[9] = Streptococcus mutans, ATCC35668, 24 h, read-out: MIC
[10] = Staphylococcus aureus, 24 h, read-out: MIC

Row | SMILES | LC50 (concentration causing 50% net cell loss) (in vitro) [µg/mL] | GI50 (normal FL cells) [µg/mL] | IC50 (normal FL cells) [µg/mL] | IC (total growth inhibition) (normal FL cells) [µg/mL] | cytotoxicity at 24 h, 25 μg/mL [1] [%] | cytotoxicity at 24 h, 50 μg/mL [1] [%] | cytotoxicity at 24 h, 75 μg/mL [1] [%] | cytotoxicity at 24 h, 100 μg/mL [1] [%] | cytotoxicity at 24 h, 25 μg/mL [2] [%] | cytotoxicity at 24 h, 50 μg/mL [2] [%] | cytotoxicity at 24 h, 75 μg/mL [2] [%] | cytotoxicity at 24 h, 100 μg/mL [2] [%] | cytotoxicity at 24 h, 25 μg/mL [3] [%] | cytotoxicity at 24 h, 50 μg/mL [3] [%] | cytotoxicity at 24 h, 75 μg/mL [3] [%] | cytotoxicity at 24 h, 100 μg/mL [3] [%] | LC50 (concentration causing 50% net cell loss relative to time zero) (MCF7) [µg/mL] | GI50 (MCF7) [µg/mL] | IC50 (MCF7) [µg/mL] | IC (total growth inhibition) (MCF7) [µg/mL] | other results
1 | CC(=O)OC[C@H]1O[C@@H](Nc2nc(-c3cccnc3)cc(-c3ccccc3C)n2)[C@H](OC(C)=O)[C@@H](OC(C)=O)[C@@H]1OC(C)=O [Compound 11, 2,3,4,6-tetra-O-acetyl-N-[4-(2-methylphenyl)-6-pyridin-3-ylpyrimidin-2-yl]-β-D-glucopyranosylamine] | > 500 | 11.2 (≈ 18.8 µM) | > 500 | > 500 | 36.1 | 49.3 | 63.8 | 90.6 | 26.4 | 42.2 | 77 | 84.8 | 17.2 | 29.8 | 45 | 49.8 | > 500 | 4.46 (≈ 7.53 µM) | > 500 | > 500 | MIC (S. mutans ATCC 35668; [9]): 250 µg/mL (≈ 422 µM); MIC (S. gordonii NCTC 7870): > 1000 µg/mL; MIC [4]: > 1000 µg/mL; MIC (S. aureus ATCC 25923): > 1000 µg/mL; MIC [5]: > 1000 µg/mL; MIC [6]: 125 µg/mL (≈ 211 µM); MIC [6, 10]: 62.5 to 125 µg/mL (≈ 105 to 211 µM); MIC [7]: > 1000 µg/mL; MIC [8]: 1000 µg/mL (≈ 1690 µM); MIC (E. coli ESBL ATCC 35218): > 1000 µg/mL; MIC (E. coli ATCC 25922): > 1000 µg/mL
2 | CC(=O)OC[C@H]1O[C@@H](Nc2nc(-c3ccc(C)cc3)cc(-c3ccccn3)n2)[C@H](OC(C)=O)[C@@H](OC(C)=O)[C@@H]1OC(C)=O [Compound 16, 2,3,4,6-tetra-O-acetyl-N-[4-(4-methylphenyl)-6-pyridin-2-ylpyrimidin-2-yl]-β-D-glucopyranosylamine] | > 500 | 1.71 (≈ 2.89 µM) | 6.31 (≈ 10.6 µM) | 6.44 | 26.4 | 34.4 | 48.6 | 70.2 | 17.1 | 28.9 | 63.2 | 84.7 | 35.7 | 62.6 | 77.1 | 99.2 | 495 (≈ 835 µM) | 1.41 (≈ 2.38 µM) | 4.12 (≈ 6.95 µM) | 4.29 | MIC (S. mutans ATCC 35668): 125 µg/mL (≈ 211 µM); MIC (S. mutans ATCC 35668; [9]): 62.5 to 125 µg/mL (≈ 105 to 211 µM); MIC (S. gordonii NCTC 7870): > 1000 µg/mL; MIC [4]: 1000 µg/mL (≈ 1690 µM); MIC (S. aureus ATCC 25923): > 1000 µg/mL; MIC [5]: > 1000 µg/mL; MIC [6, 10]: 1000 µg/mL (≈ 1690 µM); MIC [7]: > 1000 µg/mL; MIC [8]: > 1000 µg/mL; MIC (E. coli ESBL ATCC 35218): > 1000 µg/mL; MIC (E. coli ATCC 25922): > 1000 µg/mL
3 | CC(=O)OC[C@H]1O[C@@H](Nc2nc(-c3ccc(C)cc3)cc(-c3cccnc3)n2)[C@H](OC(C)=O)[C@@H](OC(C)=O)[C@@H]1OC(C)=O [Compound 17, 2,3,4,6-tetra-O-acetyl-N-[4-(4-methylphenyl)-6-pyridin-3-ylpyrimidin-2-yl]-β-D-glucopyranosylamine] | > 500 | 17.2 (≈ 29 µM) | > 500 | > 500 | 21.7 | 35.8 | 51 | 75.7 | 32 | 44.6 | 67.6 | 81.8 | 16.7 | 23.8 | 32.4 | 48.6 | > 500 | 2.19 (≈ 3.7 µM) | > 500 | > 500 | MIC (S. mutans ATCC 35668): 125 µg/mL (≈ 211 µM); MIC (S. mutans ATCC 35668; [9]): 62.5 to 125 µg/mL (≈ 105 to 211 µM); MIC (S. gordonii NCTC 7870): > 1000 µg/mL; MIC [4]: 1000 µg/mL (≈ 1690 µM); MIC (S. aureus ATCC 25923): > 1000 µg/mL; MIC [5]: > 1000 µg/mL; MIC [6]: 125 µg/mL (≈ 211 µM); MIC [6, 10]: 62.5 to 125 µg/mL (≈ 105 to 211 µM); MIC [7]: > 1000 µg/mL; MIC [8]: 1000 µg/mL (≈ 1690 µM); MIC (E. coli ESBL ATCC 35218): > 1000 µg/mL; MIC (E. coli ATCC 25922): > 1000 µg/mL
